Assay results reported in PubChem BioAssay AID1963837 (Molecular Pharmacology Branch, DTP, NCI, 2024).

Test system: 843126-344-R-J1-PDC complex spheroid viability
Experiment: Anticancer human tumor 843126-344-R-J1-PDC patient-derived melanoma cell line growth inhibition [POLQ]
Conditions: for IC50: curve of first compound; for viability, T/C: stronger effect = lower value
Experimental: Multicellular complex tumor spheroid response to Polymerase (POL) inhibitors (novobiocin, ART-558, RP6685) in combination with a variety of drugs and investigational agents in selected tumor cell lines
The POL inhibitors (novobiocin, ART-558, and RP6685) were evaluated both individually and in combination with standard of care and investigational anticancer small molecules within a complex spheroid model of solid tumors. . Complex spheroids include a stromal component modeled by human endothelial cells (HUVEC) and fibroblasts modeled by human mesenchymal stem cells (MSCs). The concentration ranges selected for each drug and investigational agent were based upon clinically achievable concentrations if the clinical Cmax of the agent was known.
Compounds. The drugs and investigational agents: novobiocin (NSC847541), ART-558 (NSC835418), RP-6685 (NSC848927), peposertib (NSC802822), ceralasertib (NSC780249), elimusertib (NSC800525), camonsertib (NSC841442), AZD-1390 (NSC803789), olaparib (NSC753686), talazoparib (NSC767125), rucaparib (NSC756644), sotorasib (NSC818433), MRTX-1133 (NSC836407), SN-38 (NSC673596), topotecan (NSC609699), epotoside (NSC141540), doxorubicin (NSC123127), gemcitabine (NSC613327), 5-fluorouracil (NSC19893), paclitaxel (NSC125973), vemurafenib (NSC761431), MSA-2 (NSC828583), SN-011 (NSC837082), adavosertib (NSC754352), prexasertib (NSC758257), carboplatin (NSC241240) and oxaliplatin (NSC266046), were obtained from the National Cancer Institute (NCI) Developmental Therapeutics Program Chemical Repository (21). The FDA-approved anticancer drug set is available from the Developmental Therapeutics Program at https://dtp.cancer.gov/organization/dscb/obtaining/. […] The stock solutions were prepared in dimethyl sulfoxide (DMSO, Sigma-Aldrich, St. Louis, MO, cat. D2650), except for the platinum compounds which were prepared in saline (Quality Biological, Gaithersburg, MD, cat. 114-055-101), at 800-fold the tested concentration and stored at -70 degrees C prior to their use. All drugs and investigational agents were tested over a range starting from a high concentration at or near the clinical Cmax and decreasing in half-log increments. If the clinical Cmax for an agent had not been determined, the highest concentration tested was 10 microM, except for SN-38, which was tested at a high concentration of 1 microM.
Cell Culture. All cells were maintained in an incubator at 37 degrees C and 5% CO2 with 95% humidity. The PDC lines were cultured according to standard operating procedures established by the NCI PDMR (https://pdmr.cancer.gov). Table 3 of the manuscript, lists the cell lines along with the number of the three cell types plated to form the mct-spheroids and media for tumor cell growth. After thawing, all PDC lines, except 997537-175-T-J1-PDC and 415267-285-R-J2-PDC, were cultured in Matrigel-coated flasks prepared with a working solution of 1X Ham's F-12 nutrient mix, without supplementation (Thermo Fisher Scientific, cat. 11765054), 100 U/mL penicillin-streptomycin (Thermo Fisher Scientific, cat. 15140122), and 2.5% Matrigel (Corning Inc., Corning, NY, cat. 354248) for the first three passages. The two PDC lines 997537-175-T-J1-PDC and 415267-285-R-J2-PDC were cultured on uncoated flasks. The 857933-349-R-J2-PDC line was cultured in 6C/Colon 1B media containing advanced DMEM/F-12 (Thermo Fisher Scientific, cat. 12634028), 10 mM HEPES (Thermo Fisher Scientific, cat. 15630080), 1X GlutaMAX supplement (Thermo Fisher Scientific, cat. 35050061), 0.1 mg/mL primocin (InvivoGen, San Diego, CA, cat. ant-pm-2), 10% defined fetal bovine serum, heat inactivated (HyClone Laboratories Inc., Logan, UT, cat. SH30070.03HI), 50% L-WRN conditioned media (ATCC, cat. CRL-3276), 1.25 mM N-Acetyl-L-cysteine (Sigma-Aldrich, cat. A9165), 10 mM nicotinamide (Sigma-Aldrich, cat. N0636), 1X B-27 supplement (Thermo Fisher Scientific, cat. 17504044), 1X N-2 supplement (Thermo Fisher Scientific, cat. […]
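For viability, T/C in this document: spheroids exposed to drugs for seven days before readout.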

## CC1COCCN1c1cc(-c2ccnn2C)c2ccnc(-c3ccn[nH]3)c2n1 (configuration not stated) + Cc1cccc(N(C)C(=O)C2C(O)CCN2c2nc(C)cc(C(F)(F)F)c2C#N)c1
Second compound 0.0316 µM
  IC50: 1970 nM
Second compound 0.1 µM
  IC50: 1300 nM
Second compound 0.316 µM
  IC50: 2070 nM
Second compound 1 µM
  IC50: 1580 nM
Second compound 3.16 µM
  IC50: 1660 nM
Second compound 10 µM
  IC50: 1870 nM
Second compound 0.0316 µM, first compound 0.0316 µM
  viability, T/C: 85.6%
Second compound 0.0316 µM, first compound 0.1 µM
  viability, T/C: 77.7%
Second compound 0.0316 µM, first compound 0.316 µM
  viability, T/C: 63.8%
Second compound 0.0316 µM, first compound 1 µM
  viability, T/C: 55.1%
Second compound 0.0316 µM, first compound 3.16 µM
  viability, T/C: 50.3%
Second compound 0.0316 µM, first compound 10 µM
  viability, T/C: 32.7%
Second compound 0.1 µM, first compound 0.0316 µM
  viability, T/C: 80.9%
Second compound 0.1 µM, first compound 0.1 µM
  viability, T/C: 67.5%
Second compound 0.1 µM, first compound 0.316 µM
  viability, T/C: 64.2%
Second compound 0.1 µM, first compound 1 µM
  viability, T/C: 52.6%
Second compound 0.1 µM, first compound 3.16 µM
  viability, T/C: 42.8%
Second compound 0.1 µM, first compound 10 µM
  viability, T/C: 28.4%
Second compound 0.316 µM, first compound 0.0316 µM
  viability, T/C: 87.2%
Second compound 0.316 µM, first compound 0.1 µM
  viability, T/C: 92.2%
Second compound 0.316 µM, first compound 0.316 µM
  viability, T/C: 64.7%
Second compound 0.316 µM, first compound 1 µM
  viability, T/C: 63.9%
Second compound 0.316 µM, first compound 3.16 µM
  viability, T/C: 43%
Second compound 0.316 µM, first compound 10 µM
  viability, T/C: 36.7%
Second compound 1 µM, first compound 0.0316 µM
  viability, T/C: 88.1%
Second compound 1 µM, first compound 0.1 µM
  viability, T/C: 85%
Second compound 1 µM, first compound 0.316 µM
  viability, T/C: 68.8%
Second compound 1 µM, first compound 1 µM
  viability, T/C: 55.6%
Second compound 1 µM, first compound 3.16 µM
  viability, T/C: 42.6%
Second compound 1 µM, first compound 10 µM
  viability, T/C: 33.3%
Second compound 3.16 µM, first compound 0.0316 µM
  viability, T/C: 89%
Second compound 3.16 µM, first compound 0.1 µM
  viability, T/C: 82.2%
Second compound 3.16 µM, first compound 0.316 µM
  viability, T/C: 68.7%
Second compound 3.16 µM, first compound 1 µM
  viability, T/C: 54.2%
Second compound 3.16 µM, first compound 3.16 µM
  viability, T/C: 44.8%
Second compound 3.16 µM, first compound 10 µM
  viability, T/C: 35%
Second compound 10 µM, first compound 0.0316 µM
  viability, T/C: 82.5%
Second compound 10 µM, first compound 0.1 µM
  viability, T/C: 83.5%
Second compound 10 µM, first compound 0.316 µM
  viability, T/C: 66%
Second compound 10 µM, first compound 1 µM
  viability, T/C: 57.6%
Second compound 10 µM, first compound 3.16 µM
  viability, T/C: 45.1%
Second compound 10 µM, first compound 10 µM
  viability, T/C: 33.1%
